Results published in patent publication US20260049140A1 (Janux Therapeutics, Inc., priority 2023, published 2026).
Read-outs that look alike come from different tables or passages of the source.

Biological target: wild-type and mutant CD3 binding domains harbored within TROP2 TCE constructs
Assay: ELISA binding of peptide masks to wild-type and mutated TROP2 TCEs
Details: captured biotinylated peptide or CD3-biotin
[1] = read-out: TCE-3 (3075) (R100A) EC50, binding of TCE-3, anti-CD3 R100A
[2] = read-out: TCE-7 (3079) (F104A) EC50, binding of TCE-7, anti-CD3 F104A
[3] = read-out: TCE-13 (3085) (S110A) EC50, binding of TCE-13, anti-CD3 S110A
[4] = read-out: TCE-14 (3086) (Y111A) EC50, binding of TCE-14, anti-CD3 Y111A
[5] = read-out: TCE-15 (3087) (W112A) EC50, binding of TCE-15, anti-CD3 W112A
[6] = read-out: TCE-19 (3091) (W233A) EC50, binding of TCE-19, anti-CD3 W233A
[7] = read-out: TCE-24 (3096) (W238A) EC50, binding of TCE-24, anti-CD3 W238A
[8] = read-out: TCE-26 (3098) (F240A) EC50, binding of TCE-26, anti-CD3 F240A
[9] = read-out: TCE-4 (3076) (H101A) EC50, binding of TCE-4, anti-CD3 H101A
[10] = read-out: TCE-6 (3078) (N103A) EC50, binding of TCE-6, anti-CD3 N103A

Method: Binding was measured in a standard ELISA format. […] Bound TCEs were detected using a standard horse radish peroxidase conjugate secondary antibody. The ELISA signal was plotted versus the log-scale concentration of TCE. The concentrations of TCE required to observe half maximal binding signal (EC50s) were calculated using Graphpad Prism software.

Row | Structure (SMILES) | EC50 [1] [nM] | EC50 [2] [nM] | EC50 [3] [nM] | EC50 [4] [nM] | EC50 [5] [nM] | EC50 [6] [nM] | EC50 [7] [nM] | EC50 [8] [nM] | EC50 [9] [nM] | EC50 (read-out: TCE-1 (2340) (wt) EC50, binding of TCE-1, wild-type anti-CD3) [nM] | EC50 [10] [nM] | EC50 (read-out: TCE-27 (3099) EC50, binding of TCE-27) [nM] | EC50 (read-out: TCE-28 (3100) EC50, binding of TCE-28) [nM]
1 | CC(C)C[C@@H]1NC(=O)[C@@H](NC(=O)[C@H](CCC(N)=O)NC(=O)[C@H](CO)NC(=O)CN)CSSC[C@@H](C(=O)N2CCC[C@H]2C(=O)N[C@@H](Cc2ccc(O)cc2)C(=O)O)NC(=O)[C@H](C(C)C)NC(=O)[C@H](CCC(=O)O)NC(=O)[C@H](Cc2c[nH]c3ccccc23)NC(=O)[C@H](CCC(=O)O)NC(=O)[C@@H]2CCCN2C(=O)CNC1=O [Peptide-2] | 0.58 | 0.63 | 3.65 | 49.1 | 26.4 | 6.28 | 6.34 | 8.02 | – | – | – | – | –
2 | CC(C)C[C@@H]1NC(=O)[C@@H](NC(=O)[C@H](C)NC(=O)[C@H](CO)NC(=O)CN)CSSC[C@@H](C(=O)N2CCC[C@H]2C(=O)N[C@@H](Cc2ccc(O)cc2)C(=O)O)NC(=O)[C@H](C(C)C)NC(=O)[C@H](CCC(=O)O)NC(=O)[C@H](Cc2c[nH]c3ccccc23)NC(=O)[C@H](CCC(=O)O)NC(=O)[C@@H]2CCCN2C(=O)CNC1=O [Peptide-11] | 0.76 | 0.88 | 3.82 | 95.6 | 38.2 | 6.26 | 7.08 | 9.2 | 1.05 | – | – | – | –
3 | CSCC[C@H](NC(=O)[C@@H]1CSSC[C@H](NC(=O)[C@H](Cc2ccc(O)cc2)NC(=O)[C@H](C)N)C(=O)NCC(=O)N2CCC[C@H]2C(=O)N[C@@H](CCC(=O)O)C(=O)N[C@@H](Cc2ccccc2)C(=O)N[C@@H](CC(=O)O)C(=O)N[C@@H](CCC(=O)O)C(=O)N[C@@H](CO)C(=O)N[C@@H](C(C)C)C(=O)NCC(=O)N1)C(=O)O [Peptide-8] | 1.85 | – | 0.76 | 76.9 | 11.2 | 6.43 | 5.66 | 5.78 | 1.36 | – | – | – | –
4 | CC(C)C[C@@H]1NC(=O)[C@H](CC(=O)O)NC(=O)[C@H](C(C)C)NC(=O)[C@H](CC(C)C)NC(=O)[C@@H](NC(=O)[C@H](CCC(=O)O)NC(=O)[C@@H](N)CO)CSSC[C@@H](C(=O)N[C@@H](Cc2ccc(O)cc2)C(=O)N[C@@H](Cc2c[nH]c3ccccc23)C(=O)O)NC(=O)[C@@H]2CCCN2C(=O)[C@H](CC(=O)O)NC(=O)[C@H](CO)NC(=O)[C@H](CCC(N)=O)NC1=O [Peptide-5] | 8.73 | 1.93 | 0.95 | 572 | 48.2 | 0.35 | 0.29 | 0.76 | 6.94 | 0.3 | 1.69 | 0.31 | –
5 | CC(C)C[C@@H]1NC(=O)[C@@H](NC(=O)[C@H](CCC(N)=O)NC(=O)[C@H](CO)NC(=O)[C@H](C)N)CSSC[C@@H](C(=O)N2CCC[C@H]2C(=O)N[C@@H](Cc2ccc(O)cc2)C(=O)O)NC(=O)[C@H](C(C)C)NC(=O)[C@H](CCC(=O)O)NC(=O)[C@H](Cc2c[nH]c3ccccc23)NC(=O)[C@H](CCC(=O)O)NC(=O)[C@@H]2CCCN2C(=O)CNC1=O [Peptide-10] | 0.68 | 0.66 | 3.46 | 64.2 | 23.4 | 5.47 | 5.33 | 5.9 | 0.83 | – | 0.36 | – | –
6 | CSCC[C@H](NC(=O)[C@@H]1CSSC[C@H](NC(=O)[C@H](Cc2ccc(O)cc2)NC(=O)[C@@H](N)C(C)C)C(=O)NCC(=O)N2CCC[C@H]2C(=O)N[C@@H](CCC(=O)O)C(=O)N[C@@H](Cc2ccccc2)C(=O)N[C@@H](CC(=O)O)C(=O)N[C@@H](CCC(=O)O)C(=O)N[C@@H](CO)C(=O)N[C@@H](C(C)C)C(=O)NCC(=O)N1)C(=O)O [Peptide-3] | 1.76 | – | 0.66 | 77.7 | 10.5 | 6.46 | 5.96 | 5.78 | – | – | 0.2 | – | 0.41
